“Also recorded” adds a separate entry of the source.
What was measured:
Male Wistar rats = experiment: step through-type passive avoidance learning test; type: in vivo, rat; settings: 30 min before test, FIG. 1
Procedure: Male Wistar rats weighing 200-220 g were used. The animals were obtained from Charles River Co. They were kept in a room with normal 12-12 h light dark cycle (light on: 06:00) at relative humidity of 60±10%.
The experiment was performed in a five-channel “step through”-type passive avoidance learning apparatus. The equipment consisted of to adjacent Plexi-glass box of 20×20×16 cm. One of them was made of regular transparent Plexi-glass and the other one was made of black, non-transparent Plexi-glass. The boxes were connected with a 7.5×8 cm passageway, equipped with a computer-controlled guillotine-door. The passage of the rats through the door was detected by infrared photocells arranged in two parallel lines in the opening of the passageway. The door was automatically closed when the animals passed through. The dark compartment was equipped with stainless steel grid floor through which electric foot shocks could have been delivered to the animals. […]
The individually numbered animals were placed into the light compartment of the equipment. […] Step through latency was automatically determined. […]
After 24 h the animals were placed again in the light compartment of the test apparatus and step-through latency was measured as described at Acquisition day, except that no foot shock was applied to the animals in any group on the second day. […]

[1] = known anxiolytic compounds, comparison statement; cited from earlier work

Row | Compound | step-through latency into the dark compartment (effect on acquisition / learning) (Male Wistar rats; 1 mg/kg ip. at Day 1 (Acquisition), latency measured at Day 2, vs shocked vehicle control) | step-through latency into the dark compartment (effect on recall / long term memory) (Male Wistar rats; 1 mg/kg ip. at Day 2 (Retention), vs shocked vehicle control) | effect on memory [1]
1 | O=c1cc(NCCN2CCN(c3cccc4c3OCCO4)CC2)cn[nH]1 [compound A, 5-[2-[4-(2,3-dihydro-benzo[1,4]dioxine-5-yl)-piperazine-1-yl]-ethylamine]-2H-pyridazine-3-one] | significantly increased; also recorded: further increased | significantly increased | –
2 | CN1C(=O)CN=C(c2ccccc2)c2cc(Cl)ccc21 [diazepam] | – | – | deleterious

— US20060211703A1, “Substituted alkyl-pyridazinones for the treatment of memory and learning malfunctions” (priority 2003, published 2006)
